# Measurements: patent US20240148743A1, “USES OF MELANOCORTIN-4 RECEPTOR AGONIST” (LG CHEM, LTD., priority 2021, published 2024)
# System: db/db mice
# Assay: db/db mouse model experiment (leptin receptor-deficient genetic obesity model, 45 kcal % high-fat diet)
# Assay type: in vivo
# Method: To confirm anti-obesity efficacy, N-((3S,5S)-1-((3S,4R)-1-(tert-butyl)-4-(4-chlorophenyl)pyrrolidine-3-carbonyl)-5- (morpholine-4 -carbonyl)pyrrolidin-3-yl)-N-((1s ,4R)-4-methylcyclohexyl)isobutyramide hydrochloride (hereinafter referred to as “Test Compound”) obtained in the Preparation Example was administered repeatedly for 4 weeks while feeding 45 kcal % high-fat diet (diet with 45 kcal % fat) to db/db mice which is a genetic obesity mouse model in which a mutation in the leptin receptor associated with the MC4R pathway occurred. The weight gain inhibitory effect was confirmed by measuring the body weight during the administration period, and the body fat mass reduction effect was confirmed by measuring the total body fat mass after repeated administration for 4 weeks. […] The results are represented in FIG. 1.
# [1] = body fat analysis after repeated administration for 4 weeks, compared to the negative control group
# [2] = db/db mice on 45 kcal % high-fat diet, repeated administration for 4 weeks, compared to the negative control group
structure (smiles),measurement,setting,value
"CC(C)C(=O)N([C@H]1C[C@@H](C(=O)N2CCOCC2)N(C(=O)[C@@H]2CN(C(C)(C)C)C[C@H]2c2ccc(Cl)cc2)C1)[C@H]1CC[C@@H](C)CC1.Cl [Test Compound, N-((3S,5S)-1-((3S,4R)-1-(tert-butyl)-4-(4-chlorophenyl)pyrrolidine-3-carbonyl)-5-(morpholine-4-carbonyl)pyrrolidin-3-yl)-N-((1s ,4R)-4-methylcyclohexyl)isobutyramide hydrochloride]",fat mass,[1],significantly decreased
same,fat-free mass,[1],no difference
same,body weight,[2],significantly reduced
same,weight gain rate,[2],significantly decreased
same,weight loss effect,"leptin receptor-deficient mouse model (db/db), FIG. 1",significant weight loss effect
